Test results published in patent US9328374B2, “Selective culture medium and method for detecting carbapenem-resistant bacteria in a test sample” (Institut National de la Sante et de la Recherche Medicale …, priority 2011, dated 2016).
Like-named read-outs stand apart in the source and are kept apart here.

Tests used:
E. coli = assay: MIC of imipenem, ertapenem and meropenem; assay type: cell-based, Escherichia coli; conditions: Escherichia coli
enterobacterial isolates = assay: MIC of imipenem, ertapenem and meropenem (groups of isolates, other species); assay type: cell-based, Enterobacteriaceae

SMILES: C[C@@H](O)[C@H]1C(=O)N2C(C(=O)O)=C(S[C@@H]3CN[C@H](C(=O)Nc4cccc(C(=O)O)c4)C3)[C@H](C)[C@H]12 [ETP, ertapenem]
- MIC (E. coli; E. coli 1020, CTX-M-1 + TEM-1, non-carbapenemase producer): 0.023 µg/mL
- MIC (E. coli; E. coli 1023, CTX-M-2 + TEM-1, non-carbapenemase producer, read-out: MIC): 0.016 µg/mL
- MIC (E. coli; E. coli 1034, TEM-1 + SHV-38, non-carbapenemase producer, read-out: MIC): 0.006 µg/mL
- MIC (E. coli; E. coli 1048, TEM-1 + SHV-2a, non-carbapenemase producer, read-out: MIC): 0.012 µg/mL
- MIC (E. coli; E. coli 1082 (TEM-1)): 0.019 µg/mL
- MIC (E. coli; E. coli 1082, TEM-1, non-carbapenemase producer): 0.019 µg/mL
- MIC (E. coli; E. coli 1092, OXA-1, non-carbapenemase producer, read-out: MIC): 0.19 µg/mL
- MIC (E. coli; E. coli 6252, (wild type), non-carbapenemase producer): 0.004 µg/mL
- MIC (E. coli; E. coli 10121, CTX-M-2, non-carbapenemase producer, read-out: MIC): 0.016 µg/mL
- MIC (E. coli; E. coli 1108013, IMP-1 + TEM-1, read-out: MIC): 4 µg/mL
- MIC (E. coli; E. coli AUS (NDM-1 + CTX-M-15 + TEM-1), read-out: MIC): 32 µg/mL
- MIC (E. coli; E. coli AUS, NDM-1 + TEM-1 + CTX-M-15, read-out: MIC): 32 µg/mL
- MIC (E. coli; E. coli BER (OXA-48 + CTX-M-15), read-out: MIC): 1.5 µg/mL
- MIC (E. coli; E. coli BER, OXA-48 + TEM-1 + CTX-M-15, read-out: MIC): 1.5 µg/mL
- MIC (E. coli; E. coli BOK (OXA-48 + CTX-M-15), read-out: MIC): 0.38 µg/mL
- MIC (E. coli; E. coli BOK, OXA-48 + CTX-M-15, read-out: MIC): 0.38 µg/mL
- MIC (E. coli; E. coli BON (OXA-48 + CTX-M-24 + TEM-1), read-out: MIC): 0.5 µg/mL
- MIC (E. coli; E. coli BON, OXA-48 + TEM-1 + CTX-M-24, read-out: MIC): 0.5 µg/mL
- MIC (E. coli; E. coli BOU (OXA-48 + CTX-M-15), read-out: MIC): 0.75 µg/mL
- MIC (E. coli; E. coli BOU, OXA-48 + CTX-M-15, read-out: MIC): 0.75 µg/mL
- MIC (E. coli; E. coli COL (KPC-2), read-out: MIC): 4 µg/mL
- MIC (E. coli; E. coli COL, KPC-2 + TEM-1 + CTX-M-9, read-out: MIC): 4 µg/mL
- MIC (E. coli; E. coli DIH (VIM-19), read-out: MIC): 16 µg/mL
- MIC (E. coli; E. coli DIH, VIM-19, read-out: MIC): 16 µg/mL
- MIC (E. coli; E. coli DIN, KPC-2 + TEM-1 + OXA-1, read-out: MIC): > 32 µg/mL
- MIC (E. coli; E. coli E14 (CTX-M-14), read-out: MIC): 0.12 µg/mL
- MIC (E. coli; E. coli E14, CTX-M-14, non-carbapenemase producer, read-out: MIC): 0.012 µg/mL
- MIC (E. coli; E. coli ECA, ACC-1, non-carbapenemase producer, read-out: MIC): 0.012 µg/mL
- MIC (E. coli; E. coli EVB, VEB-1, non-carbapenemase producer, read-out: MIC): 0.012 µg/mL
- MIC (E. coli; E. coli FOR, CTX-M-15, non-carbapenemase producer, read-out: MIC): 0.012 µg/mL
- MIC (E. coli; E. coli GEN (NDM-1 + OXA-1 + CMY-30 + TEM-1), read-out: MIC): > 32 µg/mL
- MIC (E. coli; E. coli GEN, NDM-1 + TEM-1 + CMY-30 + OXA-1, read-out: MIC): > 32 µg/mL
- MIC (E. coli; E. coli GOG (OXA-48 + CTX-M-24), read-out: MIC): 1.5 µg/mL
- MIC (E. coli; E. coli MET, Chromosome-encoded extended-spectrum cephalosporinase, non-carbapenemase producer, read-out: MIC): 0.012 µg/mL
- MIC (E. coli; E. coli NAA (OXA-48 + CTX-M-24), read-out: MIC): 2 µg/mL
- MIC (E. coli; E. coli OM3, OXA-48 + TEM-1 + CTX-M-15, read-out: MIC): 1 µg/mL
- MIC (E. coli; E. coli OM20, NDM-1 + TEM-1 + CTX-M-15, read-out: MIC): > 32 µg/mL
- MIC (E. coli; E. coli OM22, OXA-48 + TEM-1 + CTX-M-15, read-out: MIC): 1 µg/mL
- MIC (E. coli; E. coli PSP (KPC-2), read-out: MIC): 0.5 µg/mL
- MIC (E. coli; E. coli PSP, KPC-2 + TEM-1 + OXA-1, read-out: MIC): 0.5 µg/mL
- MIC (E. coli; E. coli RIC (NDM-1 + OXA-1 + OXA-10 + CMY-16), read-out: MIC): 3 µg/mL
- MIC (E. coli; E. coli RIC, NDM-1 + CMY-16 + OXA-1 + OXA-10, read-out: MIC): 3 µg/mL
- MIC (E. coli; E. coli ROB (OXA-48), read-out: MIC): 0.75 µg/mL
- MIC (E. coli; E. coli ROB, OXA-48, read-out: MIC): 0.75 µg/mL
- MIC (E. coli; E. coli SYD, CMY-2, non-carbapenemase producer, read-out: MIC): 0.012 µg/mL
- MIC (E. coli; E. coli TWA, IMP-8 + SHV-12, read-out: MIC): 8 µg/mL
- MIC (E. coli; E. coli ZAN, OXA-48 + TEM-1 + CTX-M-14, read-out: MIC): 8 µg/mL
- MIC (E. coli; strain E. coli 1008, TEM-1 + CTX-M-1, non-carbapenemase producer, read-out: MIC): 0.016 µg/mL
- MIC (E. coli; strain E. coli 1034, TEM-1 + SHV-38, non-carbapenemase producer, read-out: MIC): 0.006 µg/mL
- MIC (E. coli; strain E. coli 1048, TEM-1 + SHV-2a, non-carbapenemase producer, read-out: MIC): 0.012 µg/mL
- MIC (E. coli; strain E. coli 10121, CTX-M-2, non-carbapenemase producer, read-out: MIC): 0.016 µg/mL
- MIC (E. coli; strain E. coli AME, OXA-48 + CTX-M-24, read-out: MIC): 0.5 µg/mL
- MIC (E. coli; strain E. coli BON, OXA-48 + TEM-1 + CTX-M-24, read-out: MIC): 0.5 µg/mL
- MIC (enterobacterial isolates; Example 3, 19 isolates (1 Citrobacter freundii, 2 E. coli, 4 E. cloacae, 12 K. pneumoniae) with porin defect, read-out: MIC values of ertapenem of ertapenem non-susceptible isolates): > 0.25 µg/mL
- MIC (enterobacterial isolates; S. marcescens 0911033, IMP-1): >32 µg/mL
- MIC (enterobacterial isolates; S. marcescens 1008091, VIM-1+ CTX-M-15): >32 µg/mL
- MIC (enterobacterial isolates; S. marcescens C7052, KPC-2 + TEM-1 + SHV-12): >32 µg/mL
- MIC (enterobacterial isolates; Serratia marcescens, S. marcescens D6403, KPC-2 + TEM-1, read-out: MIC): > 32 µg/mL
